This passage reports IC50 results from ChEMBL document CHEMBL2029202, “Towards a KCC2 blocker pharmacophore model” (Bioorg Med Chem Lett, 2012).

In the experiment the target is T1, Solute carrier family 12 member 5 (Rattus norvegicus, UniProt Q63633).
T1 sequence (Q63633 whole entry): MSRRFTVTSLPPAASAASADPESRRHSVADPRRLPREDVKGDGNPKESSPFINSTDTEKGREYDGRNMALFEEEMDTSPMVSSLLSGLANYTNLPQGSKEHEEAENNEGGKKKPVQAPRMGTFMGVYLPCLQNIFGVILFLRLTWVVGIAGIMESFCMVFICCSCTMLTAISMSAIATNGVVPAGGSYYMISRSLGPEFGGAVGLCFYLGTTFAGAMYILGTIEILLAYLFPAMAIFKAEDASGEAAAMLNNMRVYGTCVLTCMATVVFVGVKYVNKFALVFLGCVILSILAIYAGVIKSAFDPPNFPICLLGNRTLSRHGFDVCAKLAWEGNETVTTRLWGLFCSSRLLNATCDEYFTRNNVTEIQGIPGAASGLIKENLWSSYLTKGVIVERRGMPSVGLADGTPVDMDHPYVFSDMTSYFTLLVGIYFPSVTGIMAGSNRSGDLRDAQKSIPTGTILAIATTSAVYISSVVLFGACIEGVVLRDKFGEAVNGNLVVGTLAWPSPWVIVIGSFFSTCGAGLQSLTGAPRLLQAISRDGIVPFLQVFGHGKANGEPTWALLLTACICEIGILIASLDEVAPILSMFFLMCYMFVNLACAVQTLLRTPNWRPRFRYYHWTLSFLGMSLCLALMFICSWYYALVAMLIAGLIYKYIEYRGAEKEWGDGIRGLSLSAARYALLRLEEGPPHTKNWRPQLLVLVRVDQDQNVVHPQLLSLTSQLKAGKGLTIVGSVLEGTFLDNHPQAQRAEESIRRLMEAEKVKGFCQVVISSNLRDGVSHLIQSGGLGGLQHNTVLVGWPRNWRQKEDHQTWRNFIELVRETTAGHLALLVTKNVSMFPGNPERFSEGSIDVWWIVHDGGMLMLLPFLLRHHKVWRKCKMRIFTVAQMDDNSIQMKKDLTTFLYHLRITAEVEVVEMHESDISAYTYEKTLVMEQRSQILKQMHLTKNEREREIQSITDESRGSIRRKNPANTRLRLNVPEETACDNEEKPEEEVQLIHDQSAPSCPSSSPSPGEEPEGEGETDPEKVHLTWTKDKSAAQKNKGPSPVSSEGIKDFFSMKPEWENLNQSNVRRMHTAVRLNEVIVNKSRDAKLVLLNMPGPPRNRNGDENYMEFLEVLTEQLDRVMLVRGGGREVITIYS
Briefly: Inhibition of rat KCC2 expressed in human Sk-Hep cells assessed as […] off Rb+ flux by atomic absorption spectroscopic analysis. The format is cell-based.

As usually defined, the IC50 is the concentration at which inhibition is half-maximal.

On to `CC(=O)N1CCCC1(Cc1ccccc1)C1=N[C@H](c2ccccc2)CO1` (mixture of isomers), for which the IC50 was 1300 nM. The figure for `CC(=O)N1CCCC1(Cc1ccccc1)C(=O)CCc1ccccc1` (racemic) is 300 nM; for `O=C(c1cc2ccccc2oc1=O)N1CCN(Cc2ccccc2)CC1` it is 4000 nM; for `O=C1CCCC2CCC(Cc3ccccc3)(C(=O)OCc3ccccc3)N12` (racemic) it is 1000 nM. Under `CC(=O)N1CCCC1(Cc1ccccc1)C(=O)OCc1ccccc1` (racemic) stands 800 nM. Under `CC(=O)N1CCC[C@]1(Cc1ccccc1)C(=O)OCc1ccccc1` stands 50000 nM; under `O=C(c1cc2cc(Br)ccc2oc1=O)N1CCN(Cc2ccccc2)CC1`, 600 nM.

As to `CC(=O)N1CCC[C@@]1(Cc1ccccc1)C(=O)OCc1ccccc1`, the IC50 was 300 nM. Consider `CC(=O)N1CCCC1(Cc1ccccc1)c1nc(-c2ccccc2)co1` (racemic), for which the IC50 was found to be 12600 nM. Under `CC(=O)N1CCCC1(Cc1ccc(F)cc1)C(=O)CCc1ccc(F)cc1` (racemic) stands 200 nM; under `CC(=O)N1CCCC1(COCc1ccccc1)Cc1ccccc1` (racemic), 20000 nM. Under `CC(=O)N1c2ccccc2CC1(Cc1ccccc1)C(=O)OCc1ccccc1` (racemic) stands 200 nM.
